For four molecules, Activity and ED50 results are on record in ChEMBL document CHEMBL3272053, “(exo, exo)-2-Aryltropane-3-carboxylic esters, hypoglycemic agents with accompanying analgesic activity” (J Med Chem, 1978).

Data set [1] has as its system Rattus norvegicus. The data set is described as follows: Narcotic analgesic activity in fasted Sprague-Dawley rat at 35 mg/kg, po measured at 15 mins by D'Amour-Smith tail-flick test relative to control. It is filed as functional. For orientation: In hot-plate and tail-flick tests a longer latency is read as antinociception.
The subject of data set [2] is Rattus norvegicus. Description: Hypoglycemic activity in Sprague-Dawley rat assessed as reduction of blood glucose level at 9 mg/kg, po by glucagon-impaired glucose disposal test in presence of microsomal enzyme inhibitor SKF 525-A. It is filed as functional, organism-based. More on the design: dose 9 mg/kg.
Data set [3] deals with Rattus norvegicus. Description: Hypoglycemic activity in Sprague-Dawley rat assessed as reduction of blood glucose level at 9 mg/kg, po measured within 15 mins by glucagon-impaired glucose disposal test relative to control. The data set is classed as functional. More on the design: scale not given: the % may be the effect or the level left.
In data set [4] the test system is Rattus norvegicus. Description: Narcotic analgesic activity in fasted Sprague-Dawley rat at 35 mg/kg, po measured at 30 mins by D'Amour-Smith tail-flick test relative to control. It is filed as functional.
Data set [5] has as its system Rattus norvegicus. Description: Narcotic analgesic activity in fasted Sprague-Dawley rat at 35 mg/kg, po measured at 60 mins by D'Amour-Smith tail-flick test relative to control. The data set is classed as functional.
The subject of data set [6] is Mus musculus. Description: Toxicity in Swiss-Webster mouse assessed as mortality at 75 mg/kg, sc. It is filed as organism-based. More on the design: dose 75 mg/kg, route subcutaneous. The following applies: in vivo.
Data set [7] deals with Rattus norvegicus. The data set is described as follows: Hypoglycemic activity in Sprague-Dawley rat assessed as reduction of blood glucose level at 9 mg/kg, po measured < 90 mins by glucagon-impaired glucose disposal test. It is filed as functional, organism-based. More on the design: dose 9 mg/kg.
Data set [8] relates to Mus musculus. Description: Analgesic activity in sc dosed Swiss-Webster mouse assessed as reduction of acetylcholine-induced writhing. It is filed as functional. The following applies: Mus musculus, Swiss-Webster, sc; read-out: ED50.
Data set [9] deals with Rattus norvegicus. The data set is described as follows: Toxicity in Sprague-Dawley rat assessed as convulsion at 35 mg/kg, po. The conditions noted are these: in vivo. More on the design: dose 35 mg/kg, route oral. The data set is classed as organism-based.
The subject of data set [10] is Rattus norvegicus. Description: Hypoglycemic activity in glucose loaded Sprague-Dawley rat assessed as reduction of blood glucose level at 94 mg/kg, po relative to control. The data set is classed as functional. More on the design: scale not given: the % may be the effect or the level left.
In data set [11] the test system is Rattus norvegicus. The data set is described as follows: Narcotic analgesic activity in fasted Sprague-Dawley rat at 240 mg/kg, po measured at 60 mins by D'Amour-Smith tail-flick test relative to control. The data set is classed as functional.
The subject of data set [12] is Rattus norvegicus. The data set is described as follows: Toxicity in Sprague-Dawley rat assessed as tremor at 240 mg/kg, po. The following applies: in vivo. More on the design: dose 240 mg/kg, route oral. The data set is classed as organism-based.
Data set [13] deals with Rattus norvegicus. Description: Narcotic analgesic activity in fasted Sprague-Dawley rat at 240 mg/kg, po measured at 15 mins by D'Amour-Smith tail-flick test relative to control. It is filed as functional.
The subject of data set [14] is Rattus norvegicus. Description: Toxicity in Sprague-Dawley rat assessed as rigidity at 240 mg/kg, po. Also noted: dose 240 mg/kg, route oral. The following applies: in vivo. The data set is classed as organism-based.
Data set [15] relates to Mus musculus. Description: Analgesic activity in Swiss-Webster mouse assessed as reduction of acetylcholine-induced writhing at 50 mg/kg, po relative to control. Also noted: scale not given: the % may be the effect or the level left. It is filed as functional.
Data set [16] relates to Rattus norvegicus. The data set is described as follows: Toxicity in Sprague-Dawley rat assessed as tremor at 60 mg/kg, sc. The data set is classed as organism-based. Also noted: dose 60 mg/kg, route subcutaneous. The following applies: in vivo.
Data set [17] deals with Rattus norvegicus. Description: Narcotic analgesic activity in fed Sprague-Dawley rat at 60 mg/kg, sc measured at 30 mins by D'Amour-Smith tail-flick test. The data set is classed as functional. The conditions noted are these: route subcutaneous.
The test system of data set [18] is Rattus norvegicus. Description: Hypoglycemic activity in Sprague-Dawley rat assessed as reduction of blood glucose level at 64 mg/kg, po by glucagon-impaired glucose disposal test relative to control. The data set is classed as functional. More on the design: scale not given: the % may be the effect or the level left.
Data set [19] has as its system Rattus norvegicus. Description: Toxicity in Sprague-Dawley rat assessed as convulsion at 60 mg/kg, sc. The data set is classed as organism-based. Also noted: dose 60 mg/kg, route subcutaneous. The following applies: in vivo.
The subject of data set [20] is Rattus norvegicus. Description: Toxicity in Sprague-Dawley rat assessed as hyperactivity at 2.5 mg/kg, sc. It is filed as organism-based. More on the design: dose 2.5 mg/kg, route subcutaneous. The following applies: in vivo.
The test system of data set [21] is Rattus norvegicus. Description: Narcotic antagonist activity in sc dosed fed Sprague-Dawley rat assessed as concentration required to decrease phenazocine-induced analgesic activity by 50%. It is filed as functional.
Data set [22] has as its system Rattus norvegicus. Description: Toxicity in Sprague-Dawley rat assessed as tremor at 120 mg/kg, sc. The data set is classed as organism-based. Also noted: dose 120 mg/kg, route subcutaneous. The following applies: in vivo.
Data set [23] has as its system Mus musculus. Description: Toxicity in Swiss-Webster mouse assessed as hyperactivity at 75 mg/kg, sc. It is filed as organism-based. More on the design: dose 75 mg/kg, route subcutaneous. The following applies: in vivo.
Data set [24] deals with Rattus norvegicus. The data set is described as follows: Narcotic analgesic activity in fed Sprague-Dawley rat at 120 mg/kg, sc measured at 30 mins by D'Amour-Smith tail-flick test. It is filed as functional. The conditions noted are these: route subcutaneous.
Data set [25] has as its system Rattus norvegicus. The data set is described as follows: Hypoglycemic activity in Sprague-Dawley rat assessed as reduction of blood glucose level at 88 mg/kg, po by glucagon-impaired glucose disposal test relative to control. The data set is classed as functional. More on the design: scale not given: the % may be the effect or the level left.

The source made the active and inactive calls. No cut-off for these calls is given here.

For orientation: ED50 means the dose that gives a 50% effect, or the effect in half of the subjects. Turning to `COC(=O)[C@H]1C[C@H]2CC[C@@H]3[C@H]1c1sccc1CN23.Cl`, the Activity with Rattus norvegicus [1] is recorded as 74%; in the data set with Rattus norvegicus [3], 43%; with Rattus norvegicus [4], 14%; with Rattus norvegicus [5], 12%; in the data set with Mus musculus [6] it was “Toxic”; in the data set with Rattus norvegicus [9] it was “Toxic”. Moreover, the outcome with Rattus norvegicus [2] was Active. In the data set with Rattus norvegicus [7], the outcome was inactive. In addition, in the data set with Mus musculus [8], the ED50 worked out at 1.5 mg/kg.
As to `COC(=O)[C@H]1C[C@H]2CC[C@@H]3[C@H]1c1sccc1C[N+]23[O-]`, the Activity with Rattus norvegicus [10] was under 20%; in the data set with Rattus norvegicus [11], 14%; in the data set with Rattus norvegicus [12], “Toxic”; with Rattus norvegicus [13], 41%; with Rattus norvegicus [14], “Toxic”; in the data set on Mus musculus [15], 67%.
In the case of `COC(=O)[C@H]1C[C@H]2CC[C@H]([C@H]1c1ccccc1)N2CC1CC1.Cc1ccc(S(=O)(=O)O)cc1`, the Activity entry in the data set with Rattus norvegicus [16] is “Toxic”; in the data set with Rattus norvegicus [17], under 20%; in the data set with Rattus norvegicus [18], 20%; in the data set on Rattus norvegicus [19], “Toxic”; in the data set with Rattus norvegicus [20] it was “Toxic”; with Rattus norvegicus [21], 4.7 mg/kg. Moreover, the 50% effective dose (ED50) with Mus musculus [8] was 16 mg/kg.
As to `COC(=O)[C@H]1C[C@H]2CC[C@H]([C@H]1Cc1ccccc1)N2C.Cl`, the Activity result is reported as “Toxic” with Rattus norvegicus [22], “Toxic” with Mus musculus [23], under 20% in the data set with Rattus norvegicus [24] and 21% with Rattus norvegicus [25]. The ED50 with Mus musculus [8] amounted to 5.8 mg/kg.
